Earlier results in patent US11278572B2, “Reducing CXCR4 expression and/or function to enhance engraftment of hematopoietic stem cells” (THE UNITED STATES OF AMERICA, as represented by the …, priority 2014, dated 2022).

Tests used:
[1] = tested on: CXCR4; settings: WHIM patients, small studies
[2] = tested on: HPV; settings: WHIM patients

SMILES: c1cc(CN2CCCNCCNCCCNCC2)ccc1CN1CCCNCCNCCCNCC1 [Plerixafor, plerixafor]
- effect on panleukopenia and WHIM syndrome [1]: successful at reversing the panleukopenia and treating WHIM syndrome

SMILES: CC(C)Cn1cnc2c(N)nc3ccccc3c21 [imiquimod]
- effect on cutaneous and anogenital HPV disease [2]: ineffective
